Results: patent publication US20120316105A1, “Polymyxin Derivates Useful As Antibacterial Agents” (priority 2011, published 2012)
Like-named read-outs stand apart in the source and are kept apart here. Bridge positions count the residues as written; N and C are the ends. Square brackets hold non-standard residues; d marks the D form. Peptide text beside a SMILES is read from it. * marks the point of attachment. X3 = O=C(c1ccnc(-c2cccc(Cl)c2)c1)*; X35 = N#Cc1ccc(C(=O)*)cc1-c1ccccc1; X31 = O=C(c1ccnc(-c2ccccc2Cl)c1)*; X7 = O=C(c1ccnc(-c2ccccc2F)c1)*; Dab = NCC[C@H](N)C(=O)O; Dap = NC[C@H](N)C(=O)O

Experiments:
[1] = tested on: PA-1646, polymyxin-resistant clinical isolate of Pseudomonas aeruginosa; type: cell-based; details: PA-1646, polymyxin-resistant clinical isolate of
Method: (§1) Minimum bactericidal concentration (MBC, mg/L), minimum inhibitory concentration (MIC, mg/L), and human renal proximal tubule epithelial cell line cytotoxicity concentration 50% (hRPTEC, TC50, micromolar) for compounds of Formula I are listed in Table 2. The compounds of Formula I were tested as the corresponding trifluoroacetate salt except for Example 1 which was tested as the sulfate salt. For Table 2 below: PMB=polymyxin B as the sulfate salt (Bedford Laboratories, pharmaceutical grade); PMB1=polymyxin B1 as the trifluoroacetate salt; Nona=polymyxin B nonapeptide as the trifluoroacetate salt. PMB1 and Nona were prepared using the solid phase methodology described in the experimental section herein.
(§2) The in vitro antibacterial activity of compounds of Formula I was evaluated by MIC testing according to Clinical and Laboratory Standards Institute (CLSI). See: Clinical and Laboratory Standards Institute. Methods for Dilution Antimicrobial Susceptibility Tests for Bacteria that Grow Aerobically; Approved Standard-Eighth Edition. CLSI document M7-A8 [ISBN 1-56238-689-1]. Clinical and Laboratory Standards Institute, 940 West Valley Road, Suite 1400, Wayne, Pa. 19087-1898 USA, 2006; also Clinical and Laboratory Standards Institute. Performance Standards for Antimicrobial Susceptibility Testing; Twentieth Informational Supplement. CLSI document M100-S20 [ISBN 1-56238-716-2]. Clinical and Laboratory Standards Institute. Methods for Determining Bactericidal Activity of Antimicrobial Agents; Approved Guideline. CLSI document M26-A (ISBN 1-56238-384-1). CLSI, 940 West Valley Road, Suite 1400, Wayne, Pa. 19087-1898 USA, 1999.
PA-1646 is a polymyxin-resistant clinical isolate of Pseudomonas aeruginosa obtained from JMI labs (www.jmilabs.com);

[2] = tested on: AB-1649, polymyxin-resistant clinical isolate of Acinetobacter baumannii; type: cell-based; details: AB-1649, polymyxin-resistant clinical isolate of
Method: as §1, §2
(§3) The MIC determination is a standard laboratory method for evaluating the antibacterial activity of a compound. The MIC represents the lowest drug concentration that inhibits visible growth of bacteria following overnight incubation. […] Typically, the drug concentration range is broken down into 2-fold increments (e.g. 0.06 mg/L, 0.12 mg/L, 0.25 mg/L, 0.50 mg/L, 1.0 mg/L, etc.) and the various drug concentrations are all individually incubated overnight with approximately the same number of bacteria. The MIC is then determined by visually inspecting the drug effect at each concentration, and identifying the lowest drug concentration that has inhibited bacterial growth as compared to the drug free control. Typically, bacteria continue to grow at drug concentrations lower than the MIC and don't grow at concentrations at and above the MIC.
(§4) The MIC values described in Table 2 below were derived from assays wherein each test compound was evaluated in duplicate. In cases where the duplicate values varied by 0-2-fold, the lower of the two values was reported below. Generally speaking, if the duplicate values varied by more than 2-fold, the assay was considered non-valid and was repeated until the variation between duplicate runs was ≦2-fold. In line with the CLSI guidelines referred to above, both control organisms and reference compounds were utilized in each MIC assay to provide proper quality control. MIC values generated with these control organisms and reference compounds were required to fall within a defined range for the assay to be considered valid and be included herein. Those skilled in the art will recognize that MIC values can and do vary from experiment to experiment. Generally speaking, it should be recognized that MIC values often vary +/−2-fold from experiment to experiment. While a single MIC is reported for each compound and each microorganism, the reader should not conclude that each compound was only tested once. Several of the compounds were subjected to multiple tests. The data reported in Table 2 is reflective of the compounds relative activity and different MICs may have been generated on these occasions in line with the guidelines described above.
(§5) The following bacterial strains were used in these MIC determinations: […]

[3] = tested on: AB-3167, clinical isolate of Acinetobacter baumannii; type: cell-based
Method: as §1, §2, §3, §4, §5

[4] = tested on: PA-1646, polymyxin-resistant clinical isolate of Pseudomonas aeruginosa; type: cell-based; details: PA-1646, polymyxin-resistant clinical isolate of; remark: listed apart in the source
Method: as §1, §2, §3, §4, §5

[5] = tested on: Pseudomonas aeruginosa strain PA01; type: cell-based; details: strain
Method: as §1, §2, §3, §4, §5

[6] = tested on: AB-1649, polymyxin-resistant clinical isolate of Acinetobacter baumannii; type: cell-based; details: AB-1649, polymyxin-resistant clinical isolate of; remark: listed apart in the source
Method: as §1, §2
AB-1649 is a polymyxin-resistant clinical isolate of Acinetobacter baumannii obtained from JMI labs (www.jmilabs.com);

[7] = tested on: EC-1, mouse virulent strain of Escherichia coli; type: cell-based; details: E. coli EC-1; overnight incubation, lower of duplicate values; trifluoroacetate salt (Example 1 and PMB sulfate)
Method: as §1, §2, §3, §4
The following bacterial strains were used in these MIC determinations:
EC-1 is a mouse virulent strain of Escherichia coli.

[8] = Cytotoxicity assay (LDH release), hRPTEC; type: cell-based, human; details: human
Method: as §1
Human Renal Proximal Tubule Epithelial cells (hRPTEC) were obtained from Lonza (Walkersville, Md., USA) and cultured in REGM (Renal Epithelial Cell Basal Medium supplemented with human epithelial growth factor, hydrocortisone, epinephrine, insulin, triiodothyronine, transferrin, gentamycin/amphotericin-B, and fetal bovine serum). The hRPTEC cells were seeded into 96-well plates and incubated at 37° C. in 5% CO2. Following a growth period of 72 hours, cells were treated with compounds at 100, 67, 44, 30, 20 and 13 micromolar for 24 hours at 37° C. in 5% CO2. The cell supernatant was then harvested for determination of LDH (lactate dehydrogenase) production. The Cytotoxicity Detection Kit from Roche was used for the measurement of LDH activity released from damaged cells. The Toxic Concentration 50% (TC50, micromolar) values were determined for each compound and compared to the control compounds (polymyxin B was used as a positive control and polymyxin B nonapepetide was used as negative control).

| Structure (SMILES) | PA-1646 MBC [1] [µg/mL] | AB-1649 MIC [2] [µg/mL] | AB-3167 MIC ([3]; AB-3167, clinical isolate of) [µg/mL] | PA-1646 MIC [4] [µg/mL] | PA01 MIC [5] [µg/mL] | AB-1649 MBC [6] [µg/mL] | EC-1 MIC [7] [µg/mL] | CC50 at 24 h [8] [µM] | AB-3167 MIC ([3]; A. baumannii AB-3167, overnight incubation, lower of duplicate values, trifluoroacetate salt (Example 1 and PMB sulfate)) [µg/mL] |
| --- | --- | --- | --- | --- | --- | --- | --- | --- | --- |
| CC(C)C[C@@H]1NC(=O)[C@@H](Cc2ccccc2)NC(=O)[C@H](CCN)NC(=O)[C@@H](NC(=O)[C@H](CN)NC(=O)[C@@H](NC(=O)[C@H](CCN)NC(=O)c2ccc(C#N)c(-c3ccccc3)c2)[C@@H](C)O)CCNC(=O)[C@H]([C@@H](C)O)NC(=O)[C@H](CCN)NC(=O)[C@H](CCN)NC1=O [Example 2] (X35-[Dab]T[Dap][Dab][Dab][dF]L[Dab][Dab]T; lactam 4-C) | 4 | 0.5 | 0.25 | 2 | 0.25 | 0.5 | 0.125 | 39 | – |
| CC(C)C[C@@H]1NC(=O)[C@@H](Cc2ccccc2)NC(=O)[C@H](CCN)NC(=O)[C@@H](NC(=O)[C@H](CN)NC(=O)[C@@H](NC(=O)[C@H](CCN)NC(=O)c2ccnc(-c3cccc(Cl)c3)c2)[C@@H](C)O)CCNC(=O)[C@H]([C@@H](C)O)NC(=O)[C@H](CCN)NC(=O)[C@H](CCN)NC1=O [Example 3] (X3-[Dab]T[Dap][Dab][Dab][dF]L[Dab][Dab]T; lactam 4-C) | 1 | 0.5 | 0.25 | 1 | 0.5 | 0.5 | 0.125 | 34 | – |
| CC(C)C[C@@H]1NC(=O)[C@@H](Cc2ccccc2)NC(=O)[C@H](CCN)NC(=O)[C@@H](NC(=O)[C@H](CN)NC(=O)[C@@H](NC(=O)[C@H](CCN)NC(=O)c2ccnc(-c3ccccc3Cl)c2)[C@@H](C)O)CCNC(=O)[C@H]([C@@H](C)O)NC(=O)[C@H](CCN)NC(=O)[C@H](CCN)NC1=O [Example 4] (X31-[Dab]T[Dap][Dab][Dab][dF]L[Dab][Dab]T; lactam 4-C) | 16 | 1 | 0.25 | 4 | 0.5 | 1 | 0.125 | 86 | – |
| CC(C)C[C@@H]1NC(=O)[C@@H](Cc2ccccc2)NC(=O)[C@H](CCN)NC(=O)[C@@H](NC(=O)[C@H](CN)NC(=O)[C@@H](NC(=O)[C@H](CCN)NC(=O)c2ccnc(-c3ccccc3F)c2)[C@@H](C)O)CCNC(=O)[C@H]([C@@H](C)O)NC(=O)[C@H](CCN)NC(=O)[C@H](CCN)NC1=O [Example 5] (X7-[Dab]T[Dap][Dab][Dab][dF]L[Dab][Dab]T; lactam 4-C) | 4 | 1 | – | 2 | 0.5 | 1 | 0.125 | 83 | 0.125 |
